This note sets out measurements from ChEMBL document CHEMBL3785079, “Structure-Activity Study of Bioisosteric Trifluoromethyl and Pentafluorosulfanyl Indole Inhibitors of the AAA ATPase p97” (ACS Med Chem Lett, 2015).

pIC50: −log10 of the molar value.

Transitional endoplasmic reticulum ATPase, sequence (P55072 whole entry): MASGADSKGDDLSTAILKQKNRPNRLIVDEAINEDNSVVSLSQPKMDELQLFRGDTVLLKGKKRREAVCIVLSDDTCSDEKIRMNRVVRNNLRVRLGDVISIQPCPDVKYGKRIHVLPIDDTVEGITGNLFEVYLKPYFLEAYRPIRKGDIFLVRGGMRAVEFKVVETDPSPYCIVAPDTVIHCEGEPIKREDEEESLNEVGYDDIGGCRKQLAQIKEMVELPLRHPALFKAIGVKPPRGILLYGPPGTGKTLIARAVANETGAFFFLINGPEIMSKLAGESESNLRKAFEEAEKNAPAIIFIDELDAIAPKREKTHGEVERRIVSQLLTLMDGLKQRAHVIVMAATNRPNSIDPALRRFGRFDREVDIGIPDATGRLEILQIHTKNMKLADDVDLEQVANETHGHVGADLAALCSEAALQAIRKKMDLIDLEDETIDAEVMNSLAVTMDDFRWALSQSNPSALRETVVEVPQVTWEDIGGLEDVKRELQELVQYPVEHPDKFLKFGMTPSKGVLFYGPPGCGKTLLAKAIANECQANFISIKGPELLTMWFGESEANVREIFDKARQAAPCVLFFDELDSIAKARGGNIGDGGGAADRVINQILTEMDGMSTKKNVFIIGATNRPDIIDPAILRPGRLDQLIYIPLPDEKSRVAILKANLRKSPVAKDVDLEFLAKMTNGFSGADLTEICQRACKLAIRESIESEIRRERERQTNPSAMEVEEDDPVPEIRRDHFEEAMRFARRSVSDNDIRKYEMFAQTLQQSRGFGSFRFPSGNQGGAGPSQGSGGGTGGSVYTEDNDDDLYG

This assay addresses Transitional endoplasmic reticulum ATPase (Homo sapiens, UniProt P55072). The assay is described as follows: Inhibition of wild type human AAA ATPase p97 expressed in Escherichia coli measured by ADPGlo assay in presence of 100 uM ATP. (In general: ADP-Glo turns the ADP formed in a reaction into a luminescent signal.)
For orientation: pIC50 means the IC50 on a negative log10 scale, so that one unit is a factor of ten. Turning to `CC(C)N1CCN(CCNC2CCN(c3cccc(-c4cc5cc([N+](=O)[O-])ccc5[nH]4)c3)CC2)CC1`, the pIC50 is 7.30.
Under `COc1ccc2[nH]c(-c3cccc(N4CCC(NCCN5CCN(C(C)C)CC5)CC4)c3)cc2c1` stands 6.15.
For `CC(C)N1CCN(CCNC2CCN(c3cccc(-c4cc5cc(C(F)(F)F)ccc5[nH]4)c3)CC2)CC1`, the pIC50 is 5.33.
Regarding `CC(C)N1CCN(CCNC2CCN(c3cccc(-c4cc5cc(S(F)(F)(F)(F)F)ccc5[nH]4)c3)CC2)CC1`, the pIC50 is 4.67.
Consider `Cc1ccc2[nH]c(-c3cccc(N4CCC(NCCN5CCN(C(C)C)CC5)CC4)c3)cc2c1`, for which the pIC50 is 6.62.
As to `CC(C)N1CCN(CCNC2CCN(c3cccc(-c4cc5cc(OC(F)(F)F)ccc5[nH]4)c3)CC2)CC1`, the pIC50 was 5.42.
